Experimental findings from ChEMBL document CHEMBL3875180, “8-Thioalkyl-adenosine derivatives inhibit Listeria monocytogenes NAD kinase through a novel binding mode” (Eur J Med Chem, 2016) are described below.

The structures appear in SMILES notation. A value given as a limit tells only on which side of the number the result lay.

Data set [1] is described as follows: Competitive inhibition of Listeria monocytogenes C-terminal His6-tagged NADK1 expressed in Escherichia coli BL21(DE3) assessed as reduction in NADP production using varying levels of NAD as substrate by glucose-6-phosphate dehydrogenase coupled enzyme based spectrophotometric method.
Data set [2] addresses T1, NAD kinase (Homo sapiens, UniProt O95544).
T1 sequence (O95544 whole entry): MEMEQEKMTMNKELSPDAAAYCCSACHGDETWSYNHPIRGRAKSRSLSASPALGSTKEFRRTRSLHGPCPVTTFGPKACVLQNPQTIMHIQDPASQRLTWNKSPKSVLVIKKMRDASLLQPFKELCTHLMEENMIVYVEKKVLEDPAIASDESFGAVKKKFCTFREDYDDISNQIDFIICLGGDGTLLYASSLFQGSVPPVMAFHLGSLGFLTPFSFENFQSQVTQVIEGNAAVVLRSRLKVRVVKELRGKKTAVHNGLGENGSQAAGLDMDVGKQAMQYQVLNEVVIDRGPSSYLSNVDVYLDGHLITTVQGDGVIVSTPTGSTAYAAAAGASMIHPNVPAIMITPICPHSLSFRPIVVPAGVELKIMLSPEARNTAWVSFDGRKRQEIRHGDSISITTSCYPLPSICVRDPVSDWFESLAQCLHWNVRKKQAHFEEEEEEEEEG
Briefly: Inhibition of human NADK expressed in Escherichia coli BL21(DE3) assessed as reduction in NADP production using NAD as substrate by glucose-6-phosphate dehydrogenase coupled enzyme based spectrophotometric method.

Data set [3] deals with T2, NAD kinase (Staphylococcus aureus (strain COL), UniProt Q5HH78).
T2 sequence (Q5HH78 whole entry): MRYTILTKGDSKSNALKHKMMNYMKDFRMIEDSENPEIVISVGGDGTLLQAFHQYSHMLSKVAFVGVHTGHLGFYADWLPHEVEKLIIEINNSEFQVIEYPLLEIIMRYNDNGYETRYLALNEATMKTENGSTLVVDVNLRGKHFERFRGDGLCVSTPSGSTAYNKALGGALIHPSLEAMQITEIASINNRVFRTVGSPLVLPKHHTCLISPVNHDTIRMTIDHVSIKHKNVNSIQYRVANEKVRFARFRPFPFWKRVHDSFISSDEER
The experiment in a line: Inhibition of Staphylococcus aureus COL NADK expressed in Escherichia coli BL21(DE3) assessed as reduction in NADP production using NAD as substrate by glucose-6-phosphate dehydrogenase coupled enzyme based spectrophotometric method. More on the design: species or system Staphylococcus aureus subsp. aureus COL.

Data set [4] concerns Bacillus subtilis. Briefly: Inhibition of Bacillus subtilis NADK1 expressed in Escherichia coli BL21(DE3) assessed as reduction in NADP production at 300 uM using NAD as substrate by glucose-6-phosphate dehydrogenase coupled enzyme based spectrophotometric method relative to control.
Data set [5] is described as follows: Inhibition of Listeria monocytogenes C-terminal His6-tagged NADK1 P132S mutant expressed in Escherichia coli BL21(DE3) assessed as reduction in NADP production using varying levels of NAD as substrate by glucose-6-phosphate dehydrogenase coupled enzyme based spectrophotometric method.
Data set [6] in a line: Inhibition of Listeria monocytogenes C-terminal His6-tagged NADK1 harboring Staphylococcus aureus COL NADK segment 1 expressed in Escherichia coli BL21(DE3) assessed as reduction in NADP production using NAD as substrate by glucose-6-phosphate dehydrogenase coupled enzyme based spectrophotometric method.
A short description of data set [7]: Inhibition of Staphylococcus aureus COL NADK S132P mutant expressed in Escherichia coli BL21(DE3) assessed as reduction in NADP production using NAD as substrate by glucose-6-phosphate dehydrogenase coupled enzyme based spectrophotometric method. More on the design: species or system Staphylococcus aureus subsp. aureus COL.
Data set [8] is described as follows: Inhibition of Bacillus subtilis NADK1 S132P mutant expressed in Escherichia coli BL21(DE3) assessed as reduction in NADP production using NAD as substrate by glucose-6-phosphate dehydrogenase coupled enzyme based spectrophotometric method.
Data set [9] in a line: Inhibition of Bacillus subtilis NADK1 harboring Listeria monocytogenes NADK1 segment 1 expressed in Escherichia coli BL21(DE3) assessed as reduction in NADP production using NAD as substrate by glucose-6-phosphate dehydrogenase coupled enzyme based spectrophotometric method.
The nature of data set [10]: Inhibition of Bacillus subtilis NADK1 harboring Listeria monocytogenes NADK1 segment 2 expressed in Escherichia coli BL21(DE3) assessed as reduction in NADP production using NAD as substrate by glucose-6-phosphate dehydrogenase coupled enzyme based spectrophotometric method.
Data set [11] is described as follows: Inhibition of human NADK harboring Listeria monocytogenes NADK1 segment 1 expressed in Escherichia coli BL21(DE3) assessed as reduction in NADP production using NAD as substrate by glucose-6-phosphate dehydrogenase coupled enzyme based spectrophotometric method.
Data set [12] can be described thus: Cytotoxicity against human MRC5 cells up to 1 x 10^-4M. The format is toxicity, cell-based.
Data set [13] is described as follows: Ratio of Ki for human NADK harboring Listeria monocytogenes NADK1 segment 1 expressed in Escherichia coli BL21(DE3) to Ki for human NADK expressed in Escherichia coli BL21(DE3).

On to `[N-]=[N+]=NC[C@H]1O[C@@H](n2c(SCC(=O)NCCc3cccc(Br)c3)nc3c(N)ncnc32)[C@H](O)[C@@H]1O`, for which the Ki (as a rule, the equilibrium dissociation constant of an inhibitor or competing ligand from its target) in data set [1] came out at 1 µM; in [2] it was 330 µM; in data set [5], 10 µM; in data set [6], 2.5 µM; in [7], 170 µM; in [8] it was 100 µM. The Ki in [9] was 55 µM; in [10], 30 µM; in data set [11], 75 µM. In data set [3], the IC50 (commonly the midpoint of a concentration-inhibition curve) was over 400 µM. For the same molecule, the inhibition (in general, the change of the read-out against control, counted positive when it falls) in [4] stood at 15%. In addition, in data set [12], the Activity entry was “Non-Toxic”.

As for `[N-]=[N+]=NC[C@H]1O[C@@H](n2c(SCC(=O)NCCc3ccccc3)nc3c(N)ncnc32)[C@H](O)[C@@H]1O`, the Ki amounted to 5 µM in data set [1] and 350 µM in data set [2]. The IC50 in data set [3] is over 400 µM. Also, the Ratio Ki in data set [13] came out at 3. In data set [12], the Activity result is “Non-Toxic”.
